Reference: PubChem BioAssay AID256 (DTP/NCI, 2004)
Where “and” joins values, the source holds several entries; their conditions need not be identical. Equal values may be shown once. Inconclusive results and toxic doses are left out. How the source made its calls: active means survival T/C of 150% or more; inactive means T/C below 125% in these data.

Test system: CD2F1 mice, L1210 leukemia ip, survival T/C
Test: NCI In Vivo Anticancer Drug Screen. Data for tumor model L1210 Leukemia (intraperitoneal) in CD2F1 (CDF1) mice
Conditions: endpoint: mean survival time, higher = longer survival
Procedure, shortened: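 In this screen, transplantable tumors were grown in mice given either the compound or its vehicle. Results were expressed as the treated measurement relative to the control measurement.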

[1] = dose: 100.0 mg/kg/injection, schedule: Q01DX009 (ip), vehicle: saline
[2] = dose: 200.0 mg/kg/injection, schedule: Q01DX009 (ip), vehicle: saline
[3] = dose: 400.0 mg/kg/injection, schedule: Q01DX009 (ip), vehicle: saline
[4] = dose: 100.0 mg/kg/injection, schedule: Q01DX009 (ip), vehicle: saline with Tween-80
[5] = dose: 200.0 mg/kg/injection, schedule: Q01DX009 (ip), vehicle: saline with Tween-80
[6] = dose: 400.0 mg/kg/injection, schedule: Q01DX009 (ip), vehicle: saline with Tween-80
[7] = dose: 100.0 mg/kg/injection, schedule: Q01DX001 (ip), vehicle: saline with Tween-80
[8] = dose: 200.0 mg/kg/injection, schedule: Q01DX001 (ip), vehicle: saline with Tween-80

Measured: T/C

CC(C)C1(C)NC(=O)NC1=O (configuration not stated)
inactive: [1] 105 % of control | [2] 94 % of control | [3] 98 % of control

CC(C)(O)c1cccc(F)c1
inactive: dose: 50.0 mg/kg/injection, schedule: Q01DX009 (ip), vehicle: saline with Tween-80 102 % of control | [4] 98 % of control | [5] 102 % of control | [6] 102 % of control

[N-]=[N+]=NC(=O)c1cnc(OCc2ccccc2)nc1N
inactive: [7] 91 % of control | [4] 93 % of control | [8] 96 % of control | [5] 96 % of control | dose: 400.0 mg/kg/injection, schedule: Q01DX001 (ip), vehicle: saline with Tween-80 94 % of control | [6] 93 % of control

N#CC(C#N)CN(C1=NCCO1)c1cccc2c1CCCC2
inactive: dose: 25.0 mg/kg/injection, schedule: Q04DX002 (ip), vehicle: saline with Tween-80 94 % of control | dose: 50.0 mg/kg/injection, schedule: Q04DX002 (ip), vehicle: saline with Tween-80 94 % of control | dose: 100.0 mg/kg/injection, schedule: Q04DX002 (ip), vehicle: saline with Tween-80 98 % of control | dose: 100.0 mg/kg/injection, schedule: Q04DX003 (ip), vehicle: saline with Tween-80 89 % of control | dose: 400.0 mg/kg/injection, schedule: Q04DX003 (ip), vehicle: saline with Tween-80 89 % of control

O=C1NC(=O)C2(CCN(CC3COc4ccccc4O3)CC2)N1c1ccccc1 (configuration not stated)
inactive: dose: 50.0 mg/kg/injection, schedule: Q01DX001 (ip), vehicle: saline with Tween-80 96 % of control | [7] 101 % of control | [8] 96 % of control

O=C1CN(CN2CCOCC2)C(=O)CN1CN1CCOCC1
inactive: dose: 12.5 mg/kg/injection, schedule: Q01DX009 (ip), vehicle: saline 98 % of control and 101 % of control | dose: 25.0 mg/kg/injection, schedule: Q01DX009 (ip), vehicle: saline 96 % of control and 98 % of control | dose: 50.0 mg/kg/injection, schedule: Q01DX009 (ip), vehicle: saline 90 % of control and 102 % of control | [1] 102 % of control and 108 % of control | [2] 106 % of control and 111 % of control | [3] 93 % of control and 107 % of control
